These are literature values, as cited in US20050009782A1, “Antiviral charged polymers that exhibit resistance to lysosomal degradation during kidney filtration and renal passage, compositions and methods of use thereof” (priority 2003, published 2005).

One data set relates to HSV. To be noted: for inhibition of herpes simplex viruses in vitro: reported in literature; for In vitro activity: listed virus = activity demonstrated.
For another data set, the system named is paramyxoviruses. Particulars: reported in literature.
Data set [1] has as its system HIV. To be noted: for inhibition of HIV replication: in vitro; for inhibition of HIV replication / inhibition of HIV in vitro: reported in literature; for In vitro activity: listed virus = activity demonstrated.
Another data set deals with CMV. Particulars: for inhibition of cytomegaloviruses in vitro: reported in literature; for In vitro activity: listed virus = activity demonstrated.
A further data set relates to semlikiviruses. To be noted: reported in literature.
Data set [2] deals with HIV.
The test system of another data set is RLV. Particulars: listed virus = activity demonstrated.
A further data set concerns HIV-1. To be noted: listed virus = activity demonstrated.
Another data set relates to Chlamydia. Particulars: listed organism = activity demonstrated.
The test system of a further data set is HSV-1. Particulars: listed virus = activity demonstrated.
The subject of the next data set is Denge virus. To be noted: listed virus = activity demonstrated.
The test system of another data set is HHV-7. Particulars: listed virus = activity demonstrated.
The test system of a further data set is MLV. To be noted: listed virus = activity demonstrated.
Another data set deals with measles. To be noted: listed virus = activity demonstrated.
A further data set concerns mumps. Particulars: listed virus = activity demonstrated.
The next data set deals with HSV-2. To be noted: listed virus = activity demonstrated.

In the case of dextran sulfate, the “inhibition of herpes simplex viruses in vitro” value with HSV is reported as “potent inhibitors”. Also, the “inhibition of paramyxoviruses in vitro” value with paramyxoviruses was “potent inhibitors”. In addition, the “toxicity of continuous intravenous infusion” value (continuous infusion to maximally tolerated dose, subjects with symptomatic HIV infection, up to 14 days) is reported as “toxic”. Besides, the “toxicity in mammals and HIV patients” value (mammals and HIV patients) is listed as “significant toxicity”. Also, in the data set with HIV [1], the “inhibition of HIV replication” value is listed as “inhibit HIV replication” and the “inhibition of HIV in vitro” value is recorded as “potent inhibitors”. In addition, the “inhibition of cytomegaloviruses in vitro” value with CMV is given as “potent inhibitors”. The “inhibition of semlikiviruses in vitro” value in the data set on semlikiviruses is recorded as “potent inhibitors”. The “inhibition of influenza viruses in vitro” value in the data set on influenza viruses is “potent inhibitors”. In the data set on HIV [2] (commercial dextran sulfate), the “activity against HIV in vivo” value is given as “poor activity”. Moreover, the “beneficial effect in vivo” value with HIV [2] (continuous infusion, subjects with symptomatic HIV infection, up to 14 days) is listed as “lack of any demonstration of beneficial effect in vivo”.
With Sulfate dodecyl laminarapentaoside, the In vitro activity entry in the data set with HIV [1] is listed as “HIV”.
For Curdlan sulfate, the In vitro activity entry in the data set on HIV [1] is “HIV”; in the data set on CMV, “CMV”.
On to sulfated cyclodextrins, for which the “inhibition of HIV replication” value with HIV [1] was “inhibit HIV replication”.
On to N-carboxymethylchitosan-N,O-sulfate, for which the In vitro activity entry in the data set with HIV [1] is listed as “HIV”; with RLV, “RLV”.
As to Sulfated xylogalactans, the In vitro activity entry with HIV-1 is “HIV-1”.
Take dextrin sulfate: in the data set with HIV [1], the “inhibition of HIV replication” value is recorded as “inhibit HIV replication”.
For the molecule Sulfoevernan, in the data set with HIV [1], the “inhibition of HIV replication” value was “inhibit HIV replication” and the In vitro activity result is given as “HIV”.
Consider Pentosan polysulfate, for which the “inhibition of herpes simplex viruses in vitro” value in the data set with HSV is “potent inhibitors”. Moreover, in the data set with paramyxoviruses, the “inhibition of paramyxoviruses in vitro” value is on record as “potent inhibitors”. Further, the In vitro activity result with Chlamydia is on record as “Chlamydia”. In addition, in the data set on HIV [1], the “inhibition of HIV replication” value is “inhibit HIV replication”, the In vitro activity entry is recorded as “HIV” and the “inhibition of HIV in vitro” value is reported as “potent inhibitors”. Besides, in the data set on CMV, the “inhibition of cytomegaloviruses in vitro” value is on record as “potent inhibitors”. Besides, the “inhibition of semlikiviruses in vitro” value with semlikiviruses is given as “potent inhibitors”. Moreover, the “inhibition of influenza viruses in vitro” value in the data set on influenza viruses was “potent inhibitors”.
Take Prunellin: the In vitro activity result in the data set on HIV [1] is reported as “HIV”.
As for “2-acetamido-2-deoxy-3-O-sulfo(14)-beta-D-glycopyranan”, the In vitro activity entry with HIV [1] was “HIV”.
For the molecule Polyinosinic-polycytidylic acid, the In vitro activity entry in the data set with HIV [1] is “HIV”.
In the case of Ribofuranan sulfate, the In vitro activity result in the data set with HIV [1] is “HIV”.
As to “(14)-2-deoxy-2-sulfamido-3-O-sulfo-(14)-beta-D-glycopyranan”, the In vitro activity entry in the data set on HIV [1] was “HIV”.
“Achranthese bidentata polysaccharide sulfate”: in the data set on HSV-1, the In vitro activity entry is recorded as “HSV-1”.
For the molecule iota-carrageenan, the “inhibition of HIV replication” value in the data set with HIV [1] is listed as “inhibit HIV replication”.
On to Sulfated octadecyl ribofurnans, for which, in the data set with HIV [1], the In vitro activity entry is listed as “HIV”.
As to `O=S(=O)(O)OC1C(OS(=O)(=O)O)C(OS(=O)(=O)O)C(OS(=O)(=O)O)C(OS(=O)(=O)O)C1OS(=O)(=O)O` (stereo not drawn) [Inositol hexasulfate], in the data set with HIV [1], the In vitro activity result was “HIV”.
In the case of Sulfated octadecyl maltohexaoside, the In vitro activity entry in the data set with HIV [1] is “HIV”.
On to `N[C@H]1C(O)O[C@H](COS(=O)(=O)O)[C@@H](O)[C@@H]1O` (stereo partly drawn) [Glucosamine-6-sulfate (monosaccharide), Glucosamine-6-sulfate], for which the In vitro activity result with HIV [1] is “HIV”.
lambda-carrageenan: in the data set with HIV [1], the “inhibition of HIV replication” value is given as “inhibit HIV replication”.
Consider Polyacetal polysulfate, for which the In vitro activity result in the data set with HIV [1] is reported as “HIV”.
Turning to “3′ sulfogalactosylceramide [Sulfatide (3′ sulfogalactosylceramide)]”, the In vitro activity entry with HIV [1] was “HIV”.
As to Galactan sulfate, the In vitro activity entry is “HIV” in the data set with HIV [1] and “HSV-1” with HSV-1.
On to kappa-carrageenan, for which, in the data set with HIV [1], the “inhibition of HIV replication” value was “inhibit HIV replication”.
Sulfated N-deacetylatedchitin: the In vitro activity result with HSV is recorded as “HSV”.
Regarding `CCCCCCCCCCCCOS(=O)(=O)[O-].[Na+]` [Sodium lauryl sulfate], the In vitro activity result is given as “HSV” with HSV and “HIV” in the data set with HIV [1].
As for Fucoidin, in the data set on Chlamydia, the In vitro activity result is “Chlamydia”. Besides, in the data set with HIV [1], the “inhibition of HIV replication” value is listed as “inhibit HIV replication” and the In vitro activity entry was “HIV”.
Heparin: in the data set with HSV, the “inhibition of herpes simplex viruses in vitro” value is “potent inhibitors”. Further, the “inhibition of paramyxoviruses in vitro” value in the data set on paramyxoviruses is “potent inhibitors”. Moreover, the In vitro activity entry in the data set with Denge virus is listed as “ASFV, Denge”; in the data set with ASFV, “ASFV, Denge”; with HHV-7, “HHV-7”; with HIV [1], “HIV”; in the data set on MLV, “virus, MLV”. Moreover, the “inhibition of HIV replication” value with HIV [1] is on record as “inhibit HIV replication”. Also, the “inhibition of HIV in vitro” value with HIV [1] was “potent inhibitors”. The “inhibition of cytomegaloviruses in vitro” value in the data set on CMV is “potent inhibitors”. Further, the “inhibition of semlikiviruses in vitro” value with semlikiviruses is “potent inhibitors”. Moreover, the “inhibition of influenza viruses in vitro” value in the data set on influenza viruses was “potent inhibitors”.
In the case of Carboxymethylchitin, the In vitro activity entry in the data set with HSV was “HSV”.
As to Chondroitin polysulfate, the In vitro activity result in the data set with HIV [1] is reported as “HIV”.
For Calcium spirulan, the In vitro activity result with measles is “measles”; with HIV [1], “HIV”; in the data set on CMV it was “CMV”; in the data set on HSV-1 it was “HSV-1”; with mumps, “mumps”.
For Rhamnan sulfate, the In vitro activity result in the data set on HIV [1] is recorded as “HIV”; in the data set with CMV, “CMV”; with HSV-1 it was “HSV-1”.
With Lentinan sulfate, in the data set on HIV [1], the “inhibition of HIV replication” value is on record as “inhibit HIV replication” and the In vitro activity entry is on record as “HIV”.
For the molecule Glycyrrhizin sulfate, the In vitro activity result in the data set on HIV [1] is listed as “HIV”.
For the molecule Xylomannan sulfate, the In vitro activity result was “HIV” in the data set with HIV [1], “HSV-1” in the data set on HSV-1 and “HSV-2” with HSV-2.
As to Mannan sulfate, in the data set on HIV [1], the “inhibition of HIV replication” value is listed as “inhibit HIV replication” and the In vitro activity result was “HIV”.

B1: Cyanovirin-N (from cyanobacterium): Cyanovirin-N from cyanobacterium (protein, UniProt P81180 1-101, looked up)
Cyanovirin-N: LGKFSQTCYNSAIQGSVLTSTCERTNGGYNTSSIDLNSVIENVDGSLKWQPSNFIETCRNTQLAGSSELAAECKTRAQQFVSTKINLDDHIANIDGTLKYE
Regarding B1, the In vitro activity result in the data set with HIV [1] is reported as “HIV”.
